Reference: patent US11319299B2, “Substituted carboxamides as inhibitors of WDR5 protein-protein binding” (PROPELLON THERAPEUTICS INC., priority 2016, dated 2022)

Each molecule was assayed on MV4-11 cells (assay: Cell proliferation assay (ATPlite)). Conditions: Homo sapiens, MV4-11, 120 h; MV-411 cells, five days; read-out: In vitro whole cell potency in MV-411 cells, (IC50).
Type: cell-based
Protocol: (iv) Cell Proliferation Assay
MV4-11 cells were seeded into a 96-well plate at 1,000 cells/well in 150 μl medium (Alpha-MEM containing 10% FBS, 100 μg/ml Normocin, and 50 μg/ml Gentamycin, Invitrogen). A HP D300 digital dispenser was used to dose cells with DMSO or test compounds across a 10-point range of concentrations (high dose of 10 μM), and cultures were grown in a humidified 5% CO2 incubator at 37° C. After five days, plates were removed from the incubator and equilibrated to room temperature. An equal volume of ATPlite assay reagent was added to each well, and samples were processed according to manufacturer's instructions (Perkin Elmer). Luminescent signal was measured using an Envision plate reader equipped with a US-Luminescence detector.

IC50	Compound
507 nM	CN1CCN(c2cc(F)c(-c3cnc(N4CCCC4)nc3)cc2NC(=O)c2c[nH]c(=O)cc2C(F)(F)F)CC1 [Example 9, N-(4-fluoro-2-(4-methylpiperazin-1-yl)-5-(2-(pyrrolidin-1-yl)pyrimidin-5-yl)phenyl)-6-oxo-4-(trifluoromethyl)-1,6-dihydropyridine-3-carboxamide]
38 nM	C[C@@H]1CN(c2cc(F)c(-c3cnc(N4CCOCC4)nc3)cc2NC(=O)c2c[nH]c(=O)cc2C(F)F)C[C@H](C)N1C [Example 34, 4-(difluoromethyl)-N-[4-fluoro-5-(2-morpholin-4-ylpyrimidin-5-yl)-2-[(3S,5R)-3,4,5-trimethylpiperazin-1-yl]phenyl]-6-oxo-1H-pyridine-3-carboxamide]
271 nM	CN(C)C1CCN(c2cc(F)c(-c3cnc(N4CCOCC4)nc3)cc2NC(=O)c2c[nH]c(=O)cc2C(F)(F)F)C1 (centres unmarked) [Example 21, N-[2-[3-(dimethylamino)pyrrolidin-1-yl]-4-fluoro-5-(2-morpholin-4-ylpyrimidin-5-yl)phenyl]-6-oxo-4-(trifluoromethyl)-1H-pyridine-3-carboxamide]
213 nM	CN1CCN(c2cc(F)c(-c3ccc(CN4CCOCC4)nc3)cc2NC(=O)c2c[nH]c(=O)cc2C(F)(F)F)CC1 [Example 41, N-[4-fluoro-2-(4-methylpiperazin-1-yl)-5-[6-(morpholin-4-ylmethyl)pyridin-3-yl]phenyl]-6-oxo-4-(trifluoromethyl)-1H-pyridine-3-carboxamide]
388 nM	CC1CN(c2cc(F)c(-c3cnc(N4CCOCC4)nc3)cc2NC(=O)c2cn(C)c(=O)cc2C(F)F)CCN1C (stereo in doubt) [Example 216, 4-(difluoromethyl)-N-[4-fluoro-5-(2-morpholin-4-ylpyrimidin-5-yl)-2-[(3R)-3,4-dimethylpiperazin-1-yl]phenyl]-1-methyl-6-oxopyridine-3-carboxamide]
881 nM	CN1CCN(c2cc(F)c(-c3ccc4c(c3)OCO4)cc2NC(=O)c2c[nH]c(=O)cc2C(F)(F)F)CC1 [Example 5, N-(5-(benzo[d][1,3]dioxol-5-yl)-4-fluoro-2-(4-methylpiperazin-1-yl)phenyl)-6-oxo-4-(trifluoromethyl)-1,6-dihydropyridine-3-carboxamide]
27 nM	C[C@@H]1CN(c2cc(F)c(-c3ccnc(N(C)C)n3)cc2NC(=O)c2c[nH]c(=O)cc2C(F)(F)F)C[C@H](C)N1C [Example 540, N-[5-[2-(dimethylamino)pyrimidin-4-yl]-4-fluoro-2-[(3R,5S)-3,4,5-trimethylpiperazin-1-yl]phenyl]-6-oxo-4-(trifluoromethyl)-1H-pyridine-3-carboxamide]
> 10000 nM	Cc1cc(C(=O)Nc2cc(-c3cnc(N4CCOCC4)nc3)c(F)cc2N2C[C@@H](C)N(C)[C@@H](C)C2)ccc1F [Example 25, 4-fluoro-N-[4-fluoro-5-(2-morpholin-4-ylpyrimidin-5-yl)-2-[(3R,5S)-3,4,5-trimethylpiperazin-1-yl]phenyl]-3-methylbenzamide]
2250 nM	CN1CCN(c2cc(F)c(-c3cccc(CN4CCOCC4)c3)cc2NC(=O)c2c[nH]c(=O)cc2C(F)(F)F)CC1 [Example 2, N-[4-fluoro-2-(4-methylpiperazin-1-yl)-5-[3-(morpholin-4-ylmethyl)phenyl]phenyl]-6-oxo-4-(trifluoromethyl)-1H-pyridine-3-carboxamide]
850 nM	C[C@@H]1CN(c2cc(F)c(-c3ccncc3)cc2NC(=O)c2c[nH]c(=O)cc2C(F)(F)F)C[C@H](C)N1C [Example 36, N-[4-fluoro-5-pyridin-4-yl-2-[(3R,5S)-3,4,5-trimethylpiperazin-1-yl]phenyl]-6-oxo-4-(trifluoromethyl)-1H-pyridine-3-carboxamide]
54 nM	CN(C)[C@@H]1CCN(c2cc(F)c(-c3cnc(N4CCOCC4)nc3)cc2NC(=O)c2c[nH]c(=O)cc2C(F)(F)F)C1 [Example 37, N-[2-[(3R)-3-(dimethylamino)pyrrolidin-1-yl]-4-fluoro-5-(2-morpholin-4-ylpyrimidin-5-yl)phenyl]-6-oxo-4-(trifluoromethyl)-1H-pyridine-3-carboxamide]
1520 nM	CN1CCN(c2cc(F)c(-c3ccc(NC4CCCCC4)nc3)cc2NC(=O)c2c[nH]c(=O)cc2C(F)(F)F)CC1 [Example 14, N-(5-(6-(cyclohexylamino)pyridin-3-yl)-4-fluoro-2-(4-methylpiperazin-1-yl)phenyl)-6-oxo-4-(trifluoromethyl)-1,6-dihydropyridine-3-carboxamide]
1270 nM	CN1CCN(c2cc(F)c(-c3cnc(NC4CCCCC4)nc3)cc2NC(=O)c2c[nH]c(=O)cc2C(F)(F)F)CC1 [Example 11, N-(5-(2-(cyclohexylamino)pyrimidin-5-yl)-4-fluoro-2-(4-methylpiperazin-1-yl)phenyl)-6-oxo-4-(trifluoromethyl)-1,6-dihydropyridine-3-carboxamide]
2900 nM	CN1CCN(c2cc(F)c(-c3ccnc(N4CCOCC4)c3)cc2NC(=O)c2c[nH]c(=O)cc2C(F)(F)F)CC1 [Example 46, N-(4-fluoro-2-(4-methylpiperazin-1-yl)-5-(2-morpholinopyridin-4-yl)phenyl)-6-oxo-4-(trifluoromethyl)-1,6-dihydropyridine-3-carboxamide]
> 10000 nM	CN1CCN(c2cc(F)c(-c3cnc(N(C)C)nc3)cc2NC(=O)c2c[nH]c(=O)cc2C(F)(F)F)CC1 [Example 40, N-[5-[2-(dimethylamino)pyrimidin-5-yl]-4-fluoro-2-(4-methylpiperazin-1-yl)phenyl]-6-oxo-4-(trifluoromethyl)-1H-pyridine-3-carboxamide]
> 10000 nM	C[C@@H]1CN(c2cc(F)ccc2NC(=O)c2c[nH]c(=O)cc2C(F)(F)F)C[C@H](C)N1C [Example 26, N-[4-fluoro-2-[(3R,5S)-3,4,5-trimethylpiperazin-1-yl]phenyl]-6-oxo-4-(trifluoromethyl)-1H-pyridine-3-carboxamide]
72 nM	Cc1ncc(-c2cc(NC(=O)c3c[nH]c(=O)cc3C(F)(F)F)c(N3C[C@@H](C)N(C)[C@@H](C)C3)cc2F)cn1 [Example 33, N-[4-fluoro-5-(2-methylpyrimidin-5-yl)-2-[(3S,5R)-3,4,5-trimethylpiperazin-1-yl]phenyl]-6-oxo-4-(trifluoromethyl)-1H-pyridine-3-carboxamide]
> 10000 nM	CN1CCN(c2cc(F)c(-c3cnc(O)nc3)cc2NC(=O)c2c[nH]c(=O)cc2C(F)(F)F)CC1 [Example 15, N-(4-fluoro-5-(2-hydroxypyrimidin-5-yl)-2-(4-methylpiperazin-1-yl)phenyl)-6-oxo-4-(trifluoromethyl)-1,6-dihydropyridine-3-carboxamide]
> 10000 nM	Cc1ncc(-c2cc(NC(=O)c3c[nH]c(=O)cc3C(F)(F)F)c(N3CCN(C)CC3)cc2F)cn1 [Example 13, N-(4-fluoro-2-(4-methylpiperazin-1-yl)-5-(2-methylpyrimidin-5-yl)phenyl)-6-oxo-4-(trifluoromethyl)-1,6-dihydropyridine-3-carboxamide]

Compound	IC50
CN(C)[C@H]1CCN(c2cc(F)c(-c3cnc(N4CCOCC4)nc3)cc2NC(=O)c2c[nH]c(=O)cc2C(F)(F)F)C1 [Example 38, N-[2-[(3S)-3-(dimethylamino)pyrrolidin-1-yl]-4-fluoro-5-(2-morpholin-4-ylpyrimidin-5-yl)phenyl]-6-oxo-4-(trifluoromethyl)-1H-pyridine-3-carboxamide]	4070 nM
